1 molecule from PMC9967700, “Metabolism-Guided Optimization of Tryptophanol-Derived Isoindolinone p53 Activators” (Pharmaceuticals, 2023) can be followed below.

Molecules are shown by their SMILES.

This experiment concerns the target T1, wt p53 core domain (DNA Binding Domain; p53DBD; residues 94–312) (Homo sapiens, UniProt P04637).
T1 construct: residues 94–312; host or cells: E. coli BL21 (DE3)-[pLys-S]
Put plainly: Differential scanning fluorimetry (DSF) thermostability. The note with it: 13d 2.5 mM, MQ 2 mM; for Tm of the wt p53DBD: 5% DMSO, mean ± SD, three assays. How it is done: Expression of wt p53 core domain. The wt p53DBD was expressed in E. coli BL21 (DE3)-[pLys-S] in fusion with an N-terminal 21-residue tag containing the hexa-histidyl peptide (His6) and the thrombin recognition sequence, using the pET15b-based expression construct.
For protein expression 10 mL of an overnight (ON) culture was used to inoculate 1 L of LB medium supplemented with 1 mL of ampicillin 100 mg/mL and 1mL of zinc sulphate 100 mM. Culture medium was incubated at 37 °C, 140 rpm till an OD600nm of ~0.5. Protein expression was then induced by adding 0.5 mL of isopropyl β-D-1-thiogalactopyranoside (IPTG) 1M (Cfinal = 0.5 mM) and bacterial growth at 27 °C, 120 rpm ON. E. coli cells were pelleted by centrifugation for 10 min, 4000 rpm, at 4 °C. The cellular pellet was resuspended in 10 mL of Lysis buffer (Sodium phosphate 50 mM; NaCl 300 mM; glycerol 10%, pH 7.4) supplemented with 1mg/mL Lysozyme (Biochemica Applichem Panreac), 1 mM of phenylmethanesulfonyl fluoride (PMSF) (Merck), 5 µg of DNAse I (Panreac applichem) and 0.8% of Triton X-100 (Merck). After a first step of chemical lysis (30 min incubation, at 4 °C), cells were further disrupted by four cycles of sonication, at 4 °C, during 60 s at 50% duty free cycle on a Vibra Cell (Media Cibernetics). The lysate was subsequently cleared by centrifugation at 10,000 rpm, 40 min, at 4 °C and the supernatant containing the soluble proteins were collected.
Purification of human wt p53DBD and His6-tag removal. Immobilized Metal Affinity Chromatography (IMAC) was performed to purify the wt p53DBD using a nickel-nitrilotriacetic acid (Ni-NTA) agarose resin (QIAGEN). Briefly, 1 mL of Ni^2+ resin was pre-equilibrated using MilliQ water (3 × 1 mL) and Lysis buffer containing 10 mM imidazole (3 × 1 mL). The soluble fraction of cellular lysate was supplemented with 6.8 µL of β-mercaptoethanol and 33.2 µL of imidazole 3 M to obtain the final concentrations of […] and 10 mM, respectively. The lysate was added to the pre-equilibrated resin and protein binding was performed by incubation on an orbital shaker for one hour at 4 °C. The suspension was added to a 9 cm polypropylene conical column (Poly-Prep columns; BioRad) and protein purification was performed by gravity flow with an imidazole gradient consisting of three washing steps (2 × 5 mL of Lysis buffer, 20 mM imidazole; 2 × 5 mL of Lysis buffer, 50 mM imidazole; and 1 × 2.5 mL Lysis buffer, 75 mM imidazole) and an elution step with 5 × 500 µL of Lysis buffer, 250 mM imidazole. Protein eluted fractions were assessed by SDS-PAGE and Coomassie staining. Size exclusion chromatography was performed on the pooled protein eluted fractions, using an AKTA prime plus system (GE Healthcare) equipped with a UV detector (280 nm), a HiLoad 16/60, Superdex 200 prep grade column (GE Healthcare) and SEC buffer (25 mM potassium phosphate buffer, 150 mM NaCl, pH 7.5). The fractions corresponding to the wt p53DBD monomers were collected and treated with thrombin (8 units of thrombin/mg wt p53DBD). The thrombin cleavage was conducted for 18 h at rt at pH 7.4 in the assay buffer recommended by the supplier. Before and after digestion protein concentration was determined through Bradford method.
Thermostability of wt p53DBD core domain assessed by differential scanning fluorimetry (DSF). An amount of 5 μg of thrombin-cleaved wt p53DBD was incubated with testing compounds (2.5 mM) in 25 mM potassium phosphate buffer and 150 mM NaCl, pH 7.5 in a final volume of 50 µL containing 2 µL of 1 mM DTT or 1 mM TCEP to promote p53 core domain redox control, and Sypro Orange at 2.5x final concentration. The fluorescence was assessed on a C1000 Touch thermal cycler equipped with a CFX96 optical reaction module (BioRad) and the FRET channel (λexc 450–490 nm and λem 560–580 nm). Temperature was ramped from 20 to 90 °C with a rate of 0.2 °C/12 sec. The Tm values were calculated using Origin 8 Software. […]

T1 sequence (P04637 94-312): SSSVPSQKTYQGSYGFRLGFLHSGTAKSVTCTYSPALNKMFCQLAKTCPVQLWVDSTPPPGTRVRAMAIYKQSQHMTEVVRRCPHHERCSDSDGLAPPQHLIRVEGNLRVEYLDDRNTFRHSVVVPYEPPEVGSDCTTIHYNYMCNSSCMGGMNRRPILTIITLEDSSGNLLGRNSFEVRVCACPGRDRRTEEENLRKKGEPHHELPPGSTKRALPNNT

Broadly, the ΔTm is the change in melting temperature against a reference sample. As to `CCCn1c(Br)c(C[C@H]2CO[C@]3(c4ccccc4)c4ccccc4C(=O)N23)c2ccccc21` [Compound 13d, (3S, 9bR)-3-((2-bromo-1-propyl-1H-indol-3-yl)methyl)-9b-phenyl-2,3-dihydrooxazolo[2,3-a]isoindol-5(9bH)-one], the “ΔTm of the wt p53DBD” value (DTT 1 mM) is “did not increase the wt p53DBD Tm” and the “ΔTm of the wt p53DBD” value (TCEP 1 mM) came out at 10.4 °C. The “Tm of the wt p53DBD” value reads like this: (DTT (1 mM)) 40.51 ± 0.09 °C; (TCEP (1 mM)) 51.38 ± 0.38 °C. The thermal shift (ΔTm) at 2500 µM (TCEP 1 mM) came out at 10.4 °C.
